This assay has as its target Sodium/potassium-transporting ATPase (Canis familiaris). The assay is described as follows: Compound was evaluated for its ability to inhibit the specific [3H]-ouabain binding to dog kidney Na+/K+ ATPase.

Consider `C[C@]12CC[C@H](O)C[C@H]1CC[C@@H]1[C@@H]2CC[C@]2(C)[C@@H](/C=C/C=O)CC[C@]12O`, for which the half-maximal inhibitory concentration (IC50) (in general, the concentration needed to halve the response being measured) came out at 60 nM.
`C[C@H]1/C(=C/C(=O)OCCN(C)C)CCC2C1C(=O)C[C@H]1C(C)(C)[C@@H](O)CC[C@]21C` (stereo partly drawn) [[(1R,4bR,7S,8aR)-7-Hydroxy-1,4b,8,8-tetramethyl-10-oxo-dodecahydro-phenanthren-(2E)-ylidene]-acetic acid 2-dimethylamino-ethyl ester] gave a 50% inhibitory concentration (IC50) of 100 nM.
